Measurements as given in paper PMC6368365, “Didehydro-Cortistatin A Inhibits HIV-1 by Specifically Binding to the Unstructured Basic Region of Tat” (mBio, 2019).

System: recombinant Tat transactivation of HIV-1 5′ LTR-luciferase
Experiment: Transactivation assay with recombinant Tat in HeLa-CD4-LTR-Luc cells
Type: cell-based
Excerpt: The production of functional recombinant HIV-1 Tat in Escherichia coli is not trivial as the proper folding of Tat is extremely important for activity, and when expressed by itself, Tat agglomerates mostly because of oxidation of the cysteine residues in the cysteine region. Tat can also adhere to different surfaces and anionic polymers via its charged and hydrophobic residues ([21], [22]). We produced and purified recombinant HIV Tat HXB3 (residues 1 to 89) with a 6×His tag in the C-terminus in E. coli. For this, we have partially optimized the arginine codon usage and changed the rare AGA into codon CGT at arginine positions 7, 53, 56, and 87 of Tat (Fig. 1A). […] After Tat purification using nickel affinity chromatography followed by size exclusion filtration, Tat protein size was analyzed by SDS-PAGE followed by Coomassie blue staining (Fig. 1B). The specificity of the bands was confirmed by Western blotting using anti-Tat serum and anti-His antibody (Fig. 1B). The purity of Tat was further verified by size exclusion chromatography and high-performance liquid chromatography (HPLC) (Fig. 1C and D). We confirmed the activity of Tat by performing transactivation assays in both HeLa-CD4 cells stably expressing the HIV-1 5′ long terminal repeat (LTR) promoter driving luciferase expression (HeLa-CD4-LTR-Luc cells) ([10]) and the OM10.1 cell line model of HIV-1 latency ([23]) (Fig. 1E and F; see Fig. S2A and S2B in the supplemental material). In HeLa-CD4-LTR-Luc cells, the activity of our purified Tat was similar to the published activity of Tat obtained from the AIDS Reagent Program ([10]). In addition, denatured Tat and Tat mutated in the basic domain (Tat Mut [arginine residues mutated to alanine residues]), used as negative controls, were unable to transactivate the reporter (Fig. S2A).
FIG 1 Purity and activity of the monomeric His-tagged Tat HXB3 and analysis of its direct binding to dCA. […] Statistical significance was determined using one-way ANOVA with post hoc Tukey’s test. ns, not significant; ***, P < 0.0001; *, P < 0.01. […]

Structure (SMILES)	inhibition of recombinant Tat transactivation (luciferase)
C[C@@](Cc1ccc(O)c(O)c1)(NN)C(=O)O.O [SCM, S-(−)-carbidopamonohydrate, reference compound]	no inhibitory activity
CN(C)C1CC23CCC4(O2)C(=CCC2(C)C(c5ccc6ccncc6c5)=CCC24)C=C3C(O)C1O (stereo not drawn) [dCA, didehydro-cortistatin A]	blocked Tat transcriptional activity in a dose-dependent manner
Cc1nnc(C(=O)NC(C)(C)c2nc(C(=O)NCc3ccc(F)cc3)c(O)c(=O)n2C)o1 [raltegravir, reference compound]	no inhibitory activity
